From US11479579B2, “Therapeutic compounds and methods” (Regents of the University of Minnesota, priority 2018, dated 2022)

Tests used:
[1] = Stability in GI tract (gastric and intestinal phase); type: in vitro ADME; settings: for Stability in the GI tract compared with p-GSH: summary in words of Table 1
Protocol: (§1) Compounds 4 and 9 were tested in for stability in the gastrointestinal tract and plasma.

Stability in plasma = type: in vitro ADME; settings: for Stability in plasma compared with p-GSH: summary in words of Table 1
Protocol: as §1

[2] = Conversion of prodrugs into p-GSH in liver homogenate; type: in vitro ADME; settings: liver homogenate with proteinase inhibitors; FIGS. 1 and 2
Protocol: The conversion of the p-GSH prodrugs, compounds 4 & 9 into p-GSH were studied in liver homogenate. Liver and brain homogenate were selected because they not only are considered as metabolic organs for p-GSH but also the target organs of p-GSH. The homogenate was prepared from fresh liver tissue and proteinase inhibitors were added in order to prevent degradation of metabolic enzymes.

glyoxalase-I = biological target: T1, glyoxalase-I (Homo sapiens, UniProt Q04760); settings: previous studies (More, Vince 2012); cited from earlier work
T1 sequence (Q04760 2-184 limits assumed): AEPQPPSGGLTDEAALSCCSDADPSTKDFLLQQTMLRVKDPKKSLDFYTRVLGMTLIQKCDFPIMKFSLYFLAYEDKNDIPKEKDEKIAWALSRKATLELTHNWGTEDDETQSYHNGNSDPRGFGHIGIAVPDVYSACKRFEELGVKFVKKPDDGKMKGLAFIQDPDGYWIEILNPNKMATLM

[3] = test system: amyloid-β induced neurotoxicity; settings: certain earlier data; cited from earlier work
[4] = test system: transgenic Alzheimer's mice; settings: certain earlier data; cited from earlier work
[5] = test system: acetaminophen (ACP) toxicity; settings: cited from earlier work

## CC(=O)SC[C@H](NC(=O)NC[C@H](N)C(=O)O)C(=O)NCC(=O)O [Compound 4]
[1]
  Stability in GI tract, Gastric Phase: >24 h
  Stability in GI tract, Intestinal Phase: 5.1 h
  Stability in the GI tract compared with p-GSH: more stable than p-GSH in the GI tract
Stability in plasma
  Stability in plasma: 5.8 h
  Stability in plasma compared with p-GSH: more stable in plasma
[2]
  Conversion into parent compound p-GSH: can be converted into parent compound p-GSH

## N[C@@H](CNC(=O)N[C@@H](CS)C(=O)NCC(=O)O)C(=O)O [p-GSH]
[1]
  Stability in GI tract, Gastric Phase: >24 h
  Stability in GI tract, Intestinal Phase: 1.3 h < 4 h
Stability in plasma
  Stability in plasma: 0.0433 h
glyoxalase-I
  Substrate property for glyoxalase-I: stable substrate
[3]
  Effect on amyloid-β induced neurotoxicity: reduced the amyloid-β induced neurotoxicity
[4]
  Effect on cognitive decline: prevented cognitive decline
[5]
  Rescue agent against acetaminophen (ACP) toxicity: useful as rescue agent

## CCOC(=O)SC[C@H](NC(=O)NC[C@H](N)C(=O)O)C(=O)NCC(=O)O [Compound 9]
[1]
  Stability in GI tract, Gastric Phase: >24 h
  Stability in GI tract, Intestinal Phase: 7.7 h
  Stability in the GI tract compared with p-GSH: more stable than p-GSH in the GI tract
Stability in plasma
  Stability in plasma: 80 h
  Stability in plasma compared with p-GSH: more stable in plasma
[2]
  Conversion into parent compound p-GSH: can be converted into parent compound p-GSH
